The values below come from patent US20250223331A1, “GLP-1/GIP DUAL-TARGETED POLYPEPTIDE AND FUSION PROTEIN AND APPLICATIONS THEREOF” (SUNSHINE LAKE PHARMA CO., LTD., priority 2021, published 2025).

The target in assay [1] is GLP-1R (Homo sapiens, UniProt P43220). The experiment in a line: cAMP assay, in vitro activity of polypeptides, HEK293-GLP-1R cells. Also noted: expressed in transfected cells; host or cells: HEK293 (pcDNA3.1, G418-selected single clone). To be noted: for EC50: HEK293-GLP-1R, cAMP, read-out: Ec50(nM) of the peptide GLP-1R; for GLP-1R agonistic activity: peptides. Type of assay: cell-based. The method, then: (§1) The digested product was electrophoresed on 1% agarose gel and the target band was cut out with a clean blade, then a gel recovery kit was used to recover the target fragment. The specific experimental operations are carried out according to the kit instructions; • 3) The target fragment enzymatic digestion recovery product and vector plasmid pcDNA3.1 fragment were connected through T4 ligase and transformed into DH5a competent cells, then single colonies were isolated by spreading on plates, and the transformants were selected and expanded for enzyme digestion verification and sequencing verification. • 4) 200 mL of the bacterial liquid obtained in inoculation step 3) and verified by sequencing to contain the fusion protein of the target product was used for plasmid extraction. The kit used was PureLink HiPure Plasmid Maxiprep Kit, and according to the instructions. […] Finally, the ethanol precipitation method was used to recover the plasmid. • 5) The host cells were HEK293, one day before transfection, the cells were spread into a 6-well plate at a density of 2×10^6 cells/well, and the addition volume was 1 mL/well.
Sequence of GLP-1R (P43220 24-463, species assumed): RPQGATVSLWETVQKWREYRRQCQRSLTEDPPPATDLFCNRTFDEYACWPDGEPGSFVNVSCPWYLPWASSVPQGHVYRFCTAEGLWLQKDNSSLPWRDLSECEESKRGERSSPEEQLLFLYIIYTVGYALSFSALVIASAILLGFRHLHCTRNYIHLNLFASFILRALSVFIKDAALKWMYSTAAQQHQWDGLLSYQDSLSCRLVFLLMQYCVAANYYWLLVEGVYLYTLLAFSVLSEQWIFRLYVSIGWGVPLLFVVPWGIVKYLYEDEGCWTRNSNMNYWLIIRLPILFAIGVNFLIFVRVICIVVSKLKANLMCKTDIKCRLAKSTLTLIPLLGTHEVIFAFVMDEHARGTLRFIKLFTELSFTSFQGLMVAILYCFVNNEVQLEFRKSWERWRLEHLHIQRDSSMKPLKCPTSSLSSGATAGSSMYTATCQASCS
(§2) Using a cAMP detection kit (Cisbio, 62AM6PEC) to detect cAMP produced by the recipient cells according to the steps described in the operating instructions. […] If the mixture was not completely melted within 1.5 min, the cells were added dropwise to a 15 mL centrifuge tube containing 8 mL warm culture medium on a clean bench, then centrifuged at 900 rpm for 5 min, the supernatant was discarded, and the cells were re-suspended with 1 mL complete culture medium (15 times by pipetting).
For orientation: cAMP levels reflect the balance of adenylyl cyclase and phosphodiesterase activity.

For assay [2], the target named is T1, GIPR (Homo sapiens, UniProt P48546).
T1 construct: expressed in transfected cells; host or cells: HEK293 (pcDNA3.1, G418-selected single clone)
T1 sequence (P48546 22-466): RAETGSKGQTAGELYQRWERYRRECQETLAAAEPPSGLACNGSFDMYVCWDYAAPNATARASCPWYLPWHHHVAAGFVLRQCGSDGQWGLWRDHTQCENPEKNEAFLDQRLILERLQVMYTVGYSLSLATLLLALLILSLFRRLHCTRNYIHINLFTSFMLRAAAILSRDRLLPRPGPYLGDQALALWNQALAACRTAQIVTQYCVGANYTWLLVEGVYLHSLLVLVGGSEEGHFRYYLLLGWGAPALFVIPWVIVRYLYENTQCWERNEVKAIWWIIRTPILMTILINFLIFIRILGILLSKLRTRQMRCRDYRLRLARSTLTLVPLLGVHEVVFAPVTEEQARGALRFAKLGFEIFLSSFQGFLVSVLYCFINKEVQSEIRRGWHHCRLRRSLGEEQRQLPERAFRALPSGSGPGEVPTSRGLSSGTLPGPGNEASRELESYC
The assay is described as follows: cAMP assay, in vitro activity of polypeptides, HEK293-GIPR cells. Type of assay: cell-based. To be noted: read-out: Ec50(nM) of the peptide GIPR. The procedure: as §1, §2

Where no end group is shown, it is not given here.

Regarding “YGEGTFTSDYSILLDKIAQREFIEWLLAGGPSSGAPPPS [CG126, YGEGTFTSDYSILLDKIAQREFIEWLLAG GPSSGAPPPS]”, the EC50 (in general, the concentration giving half of the maximal effect) is 0.918 nM in assay [1] and 0.027 nM in assay [2].

“YSEGTFTSDYSILLDKIAQQDFVEWLLAGGPSSGAPPPS [CG133, YSEGTFTSDYSILLDKIAQQDFVEWLLAG GPSSGAPPPS]”: in assay [1], the EC50 worked out at 8.18 nM and the “GLP-1R agonistic activity” value is “weaker GLP-1R agonistic activities”. Moreover, the 50% effective concentration (EC50) in assay [2] was 0.017 nM.

“YSEGTFTSDYSILLDKIAQQEFIEWLIAGGPSSGAPPPS [CG135, YSEGTFTSDYSILLDKIAQQEFIEWLIAG GPSSGAPPPS]”: the values for the EC50 in assay [1] and in assay [2] were 0.558 nM and 0.015 nM, respectively.

Consider “YSEGTFTSDYSILLDKIAQQEFIEWLLAGGPSSGAPPPS [CG134, YSEGTFTSDYSILLDKIAQQEFIEWLLAG GPSSGAPPPS]”, for which, in assay [1], the EC50 was 2.15 nM and the “GLP-1R agonistic activity” value is recorded as “weaker GLP-1R agonistic activities”. The EC50 in assay [2] came out at 0.012 nM.

As to “YSEGTFTSDYSILLDKIAQRAFIEWLLAGGPSSGAPPPS [CG121, YSEGTFTSDYSILLDKIAQRAFIEWLLAG GPSSGAPPPS]”, the EC50 in assay [1] stood at 0.322 nM; in assay [2] it was 0.018 nM.

On to “YSEGTFTSDYSILLDKIAQRAFVQWLIAGGPSSGAPPPS [CG125, YSEGTFTSDYSILLDKIAQRAFVQWLIAG GPSSGAPPPS]”, for which the concentration giving a half-maximal response (EC50) in assay [1] amounted to 0.205 nM; in assay [2] it was 0.073 nM.

As for “YSEGTFTSDYSILLDKIAQREFIEWLIAGGPSSGAPPPS [CG122, YSEGTFTSDYSILLDKIAQREFIEWLIAG GPSSGAPPPS]”, the EC50 is 0.191 nM in assay [1] and 0.016 nM in assay [2].

For the sequence “YSEGTFTSDYSILLDKIAQREFIEWLLAGGPSSGAPPPS [CG115, YSEGTFTSDYSILLDKIAQREFIEWLLAG GPSSGAPPPS]”, the concentration for a half-maximal effect (EC50) stood at 0.291 nM in assay [1] and 0.005 nM in assay [2].

Take “YSEGTFTSDYSILLDKIAQREFVQWLIAGGPSSGAPPPS [CG124, YSEGTFTSDYSILLDKIAQREFVQWLIAG GPSSGAPPPS]”: the EC50 in assay [1] was determined as 0.232 nM; in assay [2] it was 0.041 nM.

On to “YSEGTFTSDYSILLDKIAQREFVQWLLAGGPSSGAPPPS [CG123, YSEGTFTSDYSILLDKIAQREFVQWLLAG GPSSGAPPPS]”, for which the figures for the EC50 in assay [1] and in assay [2] were 0.879 nM and 0.044 nM, respectively.

In the case of “YSEGTFTSDYSILLDKKAQQDFIEWLIAGGPSSGAPPPS [CG137, YSEGTFTSDYSILLDKKAQQDFIEWLIAG GPSSGAPPPS]”, the half-maximal effective concentration (EC50) in assay [1] was 0.25 nM; in assay [2], 0.061 nM.

For “YSEGTFTSDYSILLDKKAQQDFIEWLLAGGPSSGAPPPS [CG136, YSEGTFTSDYSILLDKKAQQDFIEWLLAG GPSSGAPPPS]”, the EC50 is 1.11 nM in assay [1] and 0.05 nM in assay [2].

Regarding “YSEGTFTSDYSILLDKKAQRDFIEWLLAGGPSSGAPPPS [CG127, YSEGTFTSDYSILLDKKAQRDFIEWLLAG GPSSGAPPPS]”, the values for the EC50 in assay [1] and in assay [2] were 0.364 nM and 0.084 nM, respectively.
